Data published in article PMC10518257 (Nature Cancer, 2023).
Several values for one entry are separate records, joined by “and”; a condition that tells them apart may be missing. Equal values may be shown once.

Experiments:
LUAD-0057AS1 PDX = assay: PDX efficacy study; conditions: 100 mg/kg QD, end of study, individual tumors
[1] = tested on: NIH-3T3-CCDC6::RET xenografts; assay: Subcutaneous xenograft efficacy study
ECLC5 xenografts = assay: Subcutaneous xenograft efficacy study; conditions: for Change in Tumor Volume: end of study, individual tumors
[2] = 25 mg/kg BID, day 0, individual animals
[3] = 50 mg/kg BID, day 0, individual animals
[4] = 50 mg/kg QD, day 0, individual animals
[5] = 100 mg/kg QD, day 0, individual animals

With `COCc1ccc(NC(=O)c2c(C#CCN3CCOCC3)n(C3(C)CC3)c3ncnc(N)c23)cc1` [Vepafestinib, 4-amino-N-[4-(methoxymethyl)phenyl]-7-(1-methylcyclopropyl)-6-[3-(morpholin-4-yl)prop-1-yn-1-yl]-7H-pyrrolo[2,3-d]pyrimidine-5-carboxamide] the “Change in Tumor Volume” value (LUAD-0057AS1 PDX) was -49.7394% and -48.9874% and -48.1319% and -52.0319% and -45.2241% and -47.703% and -43.6917% and -45.79%, the “Area Under Curve of tumor growth, Mean” value ([1]; 25 mg/kg BID) was 1601 and the “Tumor volume” value [1, 2] was 93.59 mm3 (2×) and 90.28 mm3 (3×). The “Tumor volume” value ([1]; 25 mg/kg BID, day 2, individual animals) was 193.69 mm3 and 110.58 mm3 and 112.28 mm3 and 116.25 mm3 (2×), the “Tumor volume” value ([1]; 25 mg/kg BID, day 5, individual animals) was 537.65 mm3 and 353.84 mm3 and 294.89 mm3 and 435.05 mm3 and 334.49 mm3 and the “Tumor volume” value ([1]; 25 mg/kg BID, day 8, individual animals) was 612.84 mm3 and 590.68 mm3 and 301.59 mm3 and 585.96 mm3 and 389.56 mm3. For the same compound, the “Tumor volume” value ([1]; 25 mg/kg QD, day 0, individual animals) was 85.5 mm3 (2×) and 93.59 mm3 and 90.28 mm3 (2×), the “Tumor volume” value ([1]; 25 mg/kg QD, day 5, individual animals) was 285.69 mm3 and 281.26 mm3 and 438.74 mm3 and 367.92 mm3 and 382.08 mm3 and the “Tumor volume” value ([1]; 25 mg/kg QD, day 8, individual animals) was 705.04 mm3 and 750.45 mm3 and 1169.92 mm3 and 945.8 mm3 and 1108.35 mm3. For the same compound, the “Area Under Curve of tumor growth, Mean” value ([1]; 50 mg/kg BID) was 678.7, the “Tumor volume” value [1, 3] was 90.28 mm3 and the “Tumor volume” value ([1]; 50 mg/kg BID, day 5, individual animals) was 225.29 mm3 and 277.15 mm3 and 217.15 mm3 and 205.88 mm3 and 223.64 mm3. For the same compound, the “Tumor volume” value ([1]; 50 mg/kg BID, day 8, individual animals) was 231.59 mm3 and 332.9 mm3 and 291.54 mm3 and 235.62 mm3 (2×), the “Tumor volume” value [1, 4] was 93.59 mm3 and 83.97 mm3 (2×) and 85.5 mm3 and 90.28 mm3 and the “Tumor volume” value ([1]; 50 mg/kg QD, day 5, individual animals) was 270.08 mm3 and 180.15 mm3 and 189.86 mm3 and 245.54 mm3 and 226.78 mm3. The “Tumor volume” value ([1]; 50 mg/kg QD, day 8, individual animals) was 466.45 mm3 and 389.65 mm3 and 491.45 mm3 and 378.3 mm3 and 446.6 mm3, the “Area Under Curve of tumor growth, Mean” value ([1]; 100 mg/kg QD) was 371 and the “Tumor volume” value [1, 5] was 83.97 mm3 (4×) and 85.5 mm3. For the same compound, the “Tumor volume” value ([1]; 100 mg/kg QD, day 5, individual animals) was 153.78 mm3 and 149.63 mm3 and 176.28 mm3 and 145.47 mm3 and 154.42 mm3, the “Tumor volume” value ([1]; 100 mg/kg QD, day 8, individual animals) was 153.78 mm3 and 197.55 mm3 and 200.12 mm3 (2×) and 192.42 mm3 and the “Area Under Curve of tumor growth, Mean” value (ECLC5 xenografts; 25 mg/kg BID) was -1045. For the same compound, the Tumor volume (ECLC5 xenografts; [2]) was 91.87 mm3 (2×) and 88.56 mm3 (2×) and 85.31 mm3, the Tumor volume (ECLC5 xenografts; 25 mg/kg BID, day 4, individual animals) was 74.9 mm3 (2×) and 77.87 mm3 and 71.99 mm3 and 69.38 mm3 and the Tumor volume (ECLC5 xenografts; 25 mg/kg BID, day 7, individual animals) was 60.32 mm3 (2×) and 59.11 mm3 and 58.99 mm3 (2×). The Tumor volume (ECLC5 xenografts; 25 mg/kg BID, day 11, individual animals) was 60.32 mm3 and 48.77 mm3 and 55.52 mm3 and 54.07 mm3 (2×), the Tumor volume (ECLC5 xenografts; 25 mg/kg BID, day 14, individual animals) was 60.32 mm3 and 48.77 mm3 and 55.52 mm3 and 54.07 mm3 (2×) and the “Change in Tumor Volume” value (ECLC5 xenografts; 25 mg/kg BID) was -43.3221% and -50.8017% and -52.5743% and -65.5492% and -27.8004%. The tumor regression (ECLC5 xenografts; 50 mg per kg BID) was 100% ± 0%, the “Area Under Curve of tumor growth, Mean” value (ECLC5 xenografts; 50 mg/kg BID) was -1486 and the Tumor volume (ECLC5 xenografts; [3]) was 83.83 mm3 and 88.56 mm3 (2×) and 87.03 mm3 and 85.31 mm3. For the same compound, the Tumor volume (ECLC5 xenografts; 50 mg/kg BID, day 4, individual animals) was 68.07 mm3 and 72.18 mm3 (2×) and 66.63 mm3 (2×), the Tumor volume (ECLC5 xenografts; 50 mg/kg BID, day 7, individual animals) was 39.61 mm3 and 59.11 mm3 and 58.99 mm3 and 61.52 mm3 and 53.18 mm3 and the Tumor volume (ECLC5 xenografts; 50 mg/kg BID, day 11, individual animals) was 36.97 mm3 and 42.6 mm3 and 49.37 mm3 and 48.41 mm3 and 48.77 mm3. For the same compound, the Tumor volume (ECLC5 xenografts; 50 mg/kg BID, day 14, individual animals) was 36.97 mm3 and 42.6 mm3 and 41.37 mm3 and 45.5 mm3 and 44.53 mm3, the “Change in Tumor Volume” value (ECLC5 xenografts; 50 mg/kg BID) was -100% and the “Area Under Curve of tumor growth, Mean” value (ECLC5 xenografts; 50 mg/kg QD) was -1322. The Tumor volume (ECLC5 xenografts; [4]) was 85.31 mm3 and 83.83 mm3 and 88.56 mm3 and 91.87 mm3 and 90.28 mm3, the Tumor volume (ECLC5 xenografts; 50 mg/kg QD, day 4, individual animals) was 72.18 mm3 (2×) and 75.04 mm3 and 68.07 mm3 and 69.38 mm3 and the Tumor volume (ECLC5 xenografts; 50 mg/kg QD, day 7, individual animals) was 50.89 mm3 and 53.18 mm3 and 49.83 mm3 (2×) and 48.77 mm3. For the same compound, the Tumor volume (ECLC5 xenografts; 50 mg/kg QD, day 11, individual animals) was 52.07 mm3 (2×) and 57.91 mm3 and 49.83 mm3 and 48.77 mm3, the Tumor volume (ECLC5 xenografts; 50 mg/kg QD, day 14, individual animals) was 52.07 mm3 (2×) and 57.91 mm3 and 48.77 mm3 and 62.73 mm3 and the “Change in Tumor Volume” value (ECLC5 xenografts; 50 mg/kg QD) was -57.7775% and -61.9945% and -68.4282% and -71.9277% and -43.6309%. The tumor regression (ECLC5 xenografts; 100 mg per kg QD) was 90.3% ± 4%, the “Area Under Curve of tumor growth, Mean” value (ECLC5 xenografts; 100 mg/kg QD) was -1970 and the Tumor volume (ECLC5 xenografts; [5]) was 91.87 mm3 (2×) and 88.56 mm3 and 85.31 mm3 (2×). For the same compound, the Tumor volume (ECLC5 xenografts; 100 mg/kg QD, day 4, individual animals) was 47.71 mm3 and 52.07 mm3 (2×) and 49.83 mm3 and 50.97 mm3, the Tumor volume (ECLC5 xenografts; 100 mg/kg QD, day 7, individual animals) was 38.79 mm3 and 35.19 mm3 and 30.11 mm3 (2×) and 25.42 mm3 and the Tumor volume (ECLC5 xenografts; 100 mg/kg QD, day 11, individual animals) was 38.79 mm3 and 35.19 mm3 and 26.94 mm3 (2×) and 30.11 mm3. For the same compound, the Tumor volume (ECLC5 xenografts; 100 mg/kg QD, day 14, individual animals) was 34.35 mm3 and 35.19 mm3 and 26.94 mm3 and 28.5 mm3 and 30.11 mm3 and the “Change in Tumor Volume” value (ECLC5 xenografts; 100 mg/kg QD) was -85.621% and -100% and -81.7724% and -84.0971%.
